Literature values in article PMC13335693, “Discovery of a Potent Fluorescence Polarization Probe for Identifying USP1 Allosteric Inhibitors” (Advanced Science, 2026).

Conditions: stated for compound 4 as known drawback; no reference given

Cc1cnc(-c2ccccc2C(C)C)nc1NCc1ccc(-n2ccnn2)cc1 [ML323]
half-life in mouse liver microsomes (MLM): 15 min
